The values below come from patent US20230172209A1, “FUNGICIDAL COMPOSITIONS” (SYNGENTA CROP PROTECTION AG, priority 2020, published 2023).

What all share (type): cell-based
Assay [1] relates to Mycosphaerella arachidis Syn. Cercospora arachidicola. In words: Mycosphaerella arachidis growth inhibition in liquid culture (microtiter plate, photometric). As to conditions: Mycosphaerella arachidis; A-1.3 0.03 ppm; Pyriofenone 0 ppm; read-out: Observed Activity (%). The source says:
A synergistic effect exists whenever the action of an active ingredient combination is greater than the sum of the actions of the individual components. The action to be expected E for a given active ingredient combination obeys the so-called COLBY formula and can be calculated as follows (COLBY, S. R. “Calculating synergistic and antagonistic responses of herbicide combination”. Weeds, Vol. 15, pages 20-22; 1967): • ppm=milligrams of active ingredient (=a.i.) per liter of spray mixture • X=% action by active ingredient A) using p ppm of active ingredient • Y=% action by active ingredient B) using q ppm of active ingredient. According to COLBY, the expected (additive) action of active ingredients A)+B) using p+q ppm of active ingredient is: If the action actually observed (O) is greater than the expected action (E), then the action of the combination is super-additive, i.e. there is a synergistic effect. In mathematical terms, synergism corresponds to a positive value for the difference of (O-E). In the case of purely complementary addition of activities (expected activity), said difference (O-E) is zero. A negative value of said difference (O-E) signals a loss of activity compared to the expected activity. Mycosphaerella arachidis Syn. Cercospora arachidicola (Brown Leaf Spot of Peanut): Conidia of the fungus from cryogenic storage were directly mixed into nutrient broth (PDB potato dextrose broth). A DMSO solution of the test compounds was placed into a microtiter plate (96-well format) and the nutrient broth containing the fungal spores was added to it. The test plates were incubated at 24° C. and the inhibition of growth was determined photometrically after 5-6 days at 620 nm.

A further assay concerns Corynespora cassiicola. In words: Corynespora cassiicola growth inhibition in liquid culture (microtiter plate, photometric). As to conditions: Corynespora cassiicola, read-out: Observed Activity (%). The text has this: A synergistic effect exists whenever the action of an active ingredient combination is greater than the sum of the actions of the individual components. The action to be expected E for a given active ingredient combination obeys the so-called COLBY formula and can be calculated as follows (COLBY, S. R. “Calculating synergistic and antagonistic responses of herbicide combination”. Weeds, Vol. 15, pages 20-22; 1967): • ppm=milligrams of active ingredient (=a.i.) per liter of spray mixture • X=% action by active ingredient A) using p ppm of active ingredient • Y=% action by active ingredient B) using q ppm of active ingredient. According to COLBY, the expected (additive) action of active ingredients A)+B) using p+q ppm of active ingredient is: If the action actually observed (O) is greater than the expected action (E), then the action of the combination is super-additive, i.e. there is a synergistic effect. In mathematical terms, synergism corresponds to a positive value for the difference of (O-E). In the case of purely complementary addition of activities (expected activity), said difference (O-E) is zero. A negative value of said difference (O-E) signals a loss of activity compared to the expected activity. Corynespora cassiicola (Target Spot of Soybean, Target Leaf Spot of Tomato): Conidia of the fungus from cryogenic storage were directly mixed into nutrient broth (PDB potato dextrose broth). A DMSO solution of the test compounds was placed into a microtiter plate (96-well format) and the nutrient broth containing the fungal spores was added to it. The test plates were incubated at 24° C. and the inhibition of growth was determined photometrically after 3-4 days at 620 nm. Rates and results are set out in the following tables: […]

In a further assay the test system is Septoria glycines. In words: Septoria glycines growth inhibition in liquid culture (microtiter plate, visual). As to conditions: Septoria glycines, Cyclobutrifluram 0 ppm, read-out: Observed Activity (%). The source says: A synergistic effect exists whenever the action of an active ingredient combination is greater than the sum of the actions of the individual components. The action to be expected E for a given active ingredient combination obeys the so-called COLBY formula and can be calculated as follows (COLBY, S. R. “Calculating synergistic and antagonistic responses of herbicide combination”. Weeds, Vol. 15, pages 20-22; 1967): • ppm=milligrams of active ingredient (=a.i.) per liter of spray mixture • X=% action by active ingredient A) using p ppm of active ingredient • Y=% action by active ingredient B) using q ppm of active ingredient. According to COLBY, the expected (additive) action of active ingredients A)+B) using p+q ppm of active ingredient is: If the action actually observed (O) is greater than the expected action (E), then the action of the combination is super-additive, i.e. there is a synergistic effect. In mathematical terms, synergism corresponds to a positive value for the difference of (O-E). In the case of purely complementary addition of activities (expected activity), said difference (O-E) is zero. A negative value of said difference (O-E) signals a loss of activity compared to the expected activity. Septoria glycines (Brown Spot): Conidia of the fungus from cryogenic storage were directly mixed into nutrient broth ([…] potato dextrose broth). A DMSO solution of the test compounds was placed into a microtiter plate (96-well format) and the nutrient broth containing the fungal spores was added to it. The test plates were incubated at 24° C. and the inhibition of growth was determined visually after 72 hrs.

The test system of the next assay is Septoria tritici. In words: Septoria tritici growth inhibition in liquid culture (microtiter plate, photometric). As to conditions: Zymoseptoria tritici, Pyrisoxazole 0 ppm, read-out: Observed Activity (%). The source says:
A synergistic effect exists whenever the action of an active ingredient combination is greater than the sum of the actions of the individual components. The action to be expected E for a given active ingredient combination obeys the so-called COLBY formula and can be calculated as follows (COLBY, S. R. “Calculating synergistic and antagonistic responses of herbicide combination”. Weeds, Vol. 15, pages 20-22; 1967): • ppm=milligrams of active ingredient (=a.i.) per liter of spray mixture • X=% action by active ingredient A) using p ppm of active ingredient • Y=% action by active ingredient B) using q ppm of active ingredient. According to COLBY, the expected (additive) action of active ingredients A)+B) using p+q ppm of active ingredient is: If the action actually observed (O) is greater than the expected action (E), then the action of the combination is super-additive, i.e. there is a synergistic effect. In mathematical terms, synergism corresponds to a positive value for the difference of (O-E). In the case of purely complementary addition of activities (expected activity), said difference (O-E) is zero. A negative value of said difference (O-E) signals a loss of activity compared to the expected activity. Septoria tritici (Leaf Blotch): Conidia of the fungus from cryogenic storage were directly mixed into nutrient broth (PDB potato dextrose broth). A DMSO solution of the test compounds was placed into a microtiter plate (96-well format) and the nutrient broth containing the fungal spores was added to it. The test plates were incubated at 24° C. and the inhibition of growth was determined photometrically after 72 hrs.

Take `COC(=O)C(O)(Cn1cncn1)c1ccc(Oc2ccc(Cl)cc2)cc1C(F)(F)F` (stereo not shown) [Compound A-1.3, Methyl 2-[4-(4-chlorophenoxy)-2-(trifluoromethyl)phenyl]-2-hydroxy-3-(1,2,4-triazol-1-yl)propanoate]: the inhibition at 0.03 ppm in assay [1] worked out at 50%; in the assay on Corynespora cassiicola (A-1.3 0.03 ppm, Cyclobutrifluram 0 ppm), 0%; in the assay on Septoria glycines (Table 13: A-1.3 0.03 ppm), 0%; with Septoria tritici (Table 11: A-1.3 0.03 ppm), 0%. For the same molecule, in the assay on Corynespora cassiicola (A-1.3 0.2 ppm, Pyrisoxazole 0 ppm), the inhibition at 0.2 ppm is 20%. For the same molecule, the inhibition at 0.06 ppm in the assay with Septoria glycines (Table 14: A-1.3 0.06 ppm) came out at 20%; in the assay with Septoria tritici (Table 12: A-1.3 0.06 ppm), 70%.
